Results reported in US20240415869A1, “COMPOSITIONS, SYSTEMS, AND METHODS FOR TREATING CANCER USING TUMOR TREATING FIELDS (TTFIELDS) AND THIOREDOXIN/GLUTATHIONE INHIBITORS” (Novocure GmbH G, priority 2023, published 2024).

How the values were obtained:
glutathione reductase = biological target: T1, glutathione reductase (Homo sapiens, UniProt P00390); conditions: irreversible inhibitor; cited from earlier work
T1 sequence (P00390 44-522): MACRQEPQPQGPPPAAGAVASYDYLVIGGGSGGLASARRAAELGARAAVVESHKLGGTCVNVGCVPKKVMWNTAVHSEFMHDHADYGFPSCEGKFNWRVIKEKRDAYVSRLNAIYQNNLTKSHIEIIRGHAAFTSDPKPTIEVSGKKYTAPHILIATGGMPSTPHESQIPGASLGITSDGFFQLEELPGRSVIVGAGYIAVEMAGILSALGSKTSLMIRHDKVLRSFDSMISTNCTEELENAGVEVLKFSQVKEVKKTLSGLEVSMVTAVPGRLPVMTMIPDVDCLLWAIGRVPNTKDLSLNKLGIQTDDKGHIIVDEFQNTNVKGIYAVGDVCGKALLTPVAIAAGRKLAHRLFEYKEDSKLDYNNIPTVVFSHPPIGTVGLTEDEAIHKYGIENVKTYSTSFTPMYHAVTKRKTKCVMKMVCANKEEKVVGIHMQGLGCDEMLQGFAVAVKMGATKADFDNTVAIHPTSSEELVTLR

GBM cell lines and GSCs = conditions: cited from earlier work
GBM cell lines = conditions: cited from earlier work
[1] = test system: glioblastoma stem cells (GSCs); assay: Auranofin plus TTFields in glioblastoma stem cells (Example 2); assay type: cell-based; conditions: combined with TTFields
Protocol: In vitro—To assess the effect of this trimodal therapy, GSCs are exposed to AU (auranofin, 0.50 μM), RT (3 Gy), TTFields, TTFields+AU, TTFields+RT, and the combination of all three treatments (AU+RT+TTFields). The GSCs are assessed for the following: (i) a neurosphere formation assay; (ii) ROS Intracellular levels; (iii) MitoTracker™ assessment of mitochondrial membrane potential; and (iv) TrXR1 and GSH activity assays.
In vivo—To further investigate the effect of ROS-inducing trimodal therapy (RT+AU+TTFields) in vivo, subcutaneous injections of GSCs 1123S and 528 stably transduced with luciferase are performed. GCSs are injected (3×10^5 cells 10 μl) to the right flank of mice. Treatment is started when tumors can be visualized by BLI upon injection of D-luciferin substrate. Blood is collected to monitor potential toxicities. The tumor is exposed to snap-freezing and then processed for WB and for tissue formalin fixation for further IHC analysis of p53, MGMT, and TrxR1-associated genes.

GSCs and GBM cell lines = conditions: lower IC50s for GSCs compared to GBM cell lines; cited from earlier work
[2] = test system: glioblastoma stem cells (GSCs); conditions: cited from earlier work
wild-type human TrxR1 = biological target: T2, wild-type human TrxR1 (Homo sapiens, UniProt Q16881); conditions: cited from earlier work
T2 sequence (Q16881 151-649 limits assumed): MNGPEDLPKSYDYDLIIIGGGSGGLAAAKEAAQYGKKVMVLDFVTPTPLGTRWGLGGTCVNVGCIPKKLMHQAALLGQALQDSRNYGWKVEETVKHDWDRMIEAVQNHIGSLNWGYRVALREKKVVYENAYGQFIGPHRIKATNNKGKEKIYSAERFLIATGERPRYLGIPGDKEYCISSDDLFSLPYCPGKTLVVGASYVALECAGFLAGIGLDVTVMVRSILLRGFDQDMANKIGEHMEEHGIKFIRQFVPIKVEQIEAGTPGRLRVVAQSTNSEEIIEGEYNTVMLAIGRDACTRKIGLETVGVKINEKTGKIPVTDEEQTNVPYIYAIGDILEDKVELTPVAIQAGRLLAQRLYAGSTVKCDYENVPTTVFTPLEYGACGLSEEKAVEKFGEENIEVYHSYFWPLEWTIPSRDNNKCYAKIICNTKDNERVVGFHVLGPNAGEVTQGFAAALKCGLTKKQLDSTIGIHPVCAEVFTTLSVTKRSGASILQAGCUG

[3] = biological target: T3, glutathione peroxidase 4 (GPX4) (Homo sapiens, UniProt P36969); conditions: selective and covalent inhibitor; cited from earlier work
T3 sequence (P36969 1-197): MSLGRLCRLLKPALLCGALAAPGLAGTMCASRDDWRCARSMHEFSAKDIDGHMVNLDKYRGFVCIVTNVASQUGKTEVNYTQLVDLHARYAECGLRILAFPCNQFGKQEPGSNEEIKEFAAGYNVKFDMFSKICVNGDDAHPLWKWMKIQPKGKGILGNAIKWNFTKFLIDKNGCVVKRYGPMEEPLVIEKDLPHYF

mitochondrial toxicity = conditions: cited from earlier work
[4] = biological target: T4, cytosolic thioredoxin reductase 1 (TXNRD1) (Homo sapiens, UniProt Q16881); conditions: irreversible inhibitor; cited from earlier work
T4 sequence (Q16881 151-649 limits assumed): T2 sequence (Q16881 151-649 limits assumed)

cancer cells = conditions: piperlongumine combined with erastin; cited from earlier work

For `N[C@@H](CCC(=O)N[C@@H](CSc1ccc([N+](=O)[O-])cc1[N+](=O)[O-])C(=O)NCC(=O)O)C(=O)O` [(2,4-Dinitrophenyl)glutathione, S-(2,4-Dinitrophenyl)glutathione], the Ki (glutathione reductase) is listed as 30000 nM.

For `CC(=O)OC[C@H]1O[C@@H]([S-])[C@H](OC(C)=O)[C@@H](OC(C)=O)[C@@H]1OC(C)=O.CCP(CC)CC.[Au+]` [Auranofin], the “intracellular ROS” value (GBM cell lines and GSCs; GBM cell lines and GSCs, auranofin alone) is given as “significantly increases”, the “ROS, combination with radiation therapy” value (GBM cell lines and GSCs; GSCs, auranofin with RT) is given as “synergistically increases” and the clonogenic potential (GBM cell lines) is given as “decreased”. The “effect of combination of Auranofin and TTFields” value [1] was “synergistic effect”, the cell survival (GSCs and GBM cell lines) was “decreased” and the neurosphere formation ability [2] was “decreased”.

In the case of `O=c1c2ccccc2[se]n1CCn1[se]c2ccccc2c1=O` [Ethaselen, 1,2-[bis(1,2-benzisoselenazolone-3 (2H)-ketone)]ethane], the IC50 (wild-type human TrxR1) is listed as 500 nM.

In the case of `Cc1onc(C(=O)N2CCN(C(c3ccc(Cl)cc3)c3ccc(Cl)cc3)CC2)c1[N+](=O)[O-]` [ML-210], the EC50 [3] is given as 30 nM.

In the case of `COc1ccc([N+](=O)[O-])c(S(=O)(=O)c2ccc(Cl)cc2)n1` [TRi-1], the mitochondrial toxicity (mitochondrial toxicity) is listed as “little mitochondrial toxicity for anticancer therapy” and the IC50 [4] is listed as 12 nM.

For `COc1cc(/C=C/C(=O)N2CCC=CC2=O)cc(OC)c1OC` [piperlongumine], the “effect of combination over either treatment alone” value (cancer cells) is listed as “synergistic effect”.
